Here are results for 31 compounds from patent publication US20030186967A1, “Acylresorcinol derivatives are selective vitronectin receptor inhibitors” (American Home Products Corporation, priority 1998, published 2003).

The test addresses T1, Vitronectin receptor αVβ3 (Homo sapiens, UniProt P05106+P06756).
T1 construct: expressed in transfected cells; host or cells: 512P5 cells (plasma membrane preparation)
The experiment in a line: Vitronectin Receptor αVβ3 Binding Assay. The conditions noted are these: read-out: VnR (IC50μM).

T1 sequence (P06756 31-889 limits assumed): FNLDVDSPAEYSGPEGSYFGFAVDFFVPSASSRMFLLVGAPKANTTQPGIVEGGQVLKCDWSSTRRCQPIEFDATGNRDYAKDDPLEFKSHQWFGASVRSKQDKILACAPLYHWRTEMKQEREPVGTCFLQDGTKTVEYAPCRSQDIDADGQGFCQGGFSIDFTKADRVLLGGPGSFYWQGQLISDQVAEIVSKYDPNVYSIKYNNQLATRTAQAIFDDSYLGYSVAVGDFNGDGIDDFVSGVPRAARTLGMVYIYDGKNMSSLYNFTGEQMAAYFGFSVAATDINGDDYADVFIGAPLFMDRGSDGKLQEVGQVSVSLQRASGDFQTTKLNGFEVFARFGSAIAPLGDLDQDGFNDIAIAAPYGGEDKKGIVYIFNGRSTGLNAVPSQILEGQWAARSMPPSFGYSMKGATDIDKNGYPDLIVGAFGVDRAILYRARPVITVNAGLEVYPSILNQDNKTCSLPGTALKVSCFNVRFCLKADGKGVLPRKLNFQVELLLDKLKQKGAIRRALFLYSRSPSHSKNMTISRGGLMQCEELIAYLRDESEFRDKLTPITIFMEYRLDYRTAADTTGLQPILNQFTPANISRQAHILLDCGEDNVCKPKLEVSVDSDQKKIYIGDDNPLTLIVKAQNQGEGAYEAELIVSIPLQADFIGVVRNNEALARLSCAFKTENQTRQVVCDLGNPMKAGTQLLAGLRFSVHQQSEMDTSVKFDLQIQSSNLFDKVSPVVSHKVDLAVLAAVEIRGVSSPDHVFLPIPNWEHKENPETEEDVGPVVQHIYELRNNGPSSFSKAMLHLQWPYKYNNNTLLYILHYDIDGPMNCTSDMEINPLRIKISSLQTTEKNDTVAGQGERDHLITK
T1 sequence (P06756 891-1048 partner limits assumed): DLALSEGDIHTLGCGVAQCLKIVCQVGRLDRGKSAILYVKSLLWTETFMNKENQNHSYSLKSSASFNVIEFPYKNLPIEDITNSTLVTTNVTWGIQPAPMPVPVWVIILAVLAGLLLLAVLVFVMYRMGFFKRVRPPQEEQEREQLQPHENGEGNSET
T1 sequence (P05106 27-788): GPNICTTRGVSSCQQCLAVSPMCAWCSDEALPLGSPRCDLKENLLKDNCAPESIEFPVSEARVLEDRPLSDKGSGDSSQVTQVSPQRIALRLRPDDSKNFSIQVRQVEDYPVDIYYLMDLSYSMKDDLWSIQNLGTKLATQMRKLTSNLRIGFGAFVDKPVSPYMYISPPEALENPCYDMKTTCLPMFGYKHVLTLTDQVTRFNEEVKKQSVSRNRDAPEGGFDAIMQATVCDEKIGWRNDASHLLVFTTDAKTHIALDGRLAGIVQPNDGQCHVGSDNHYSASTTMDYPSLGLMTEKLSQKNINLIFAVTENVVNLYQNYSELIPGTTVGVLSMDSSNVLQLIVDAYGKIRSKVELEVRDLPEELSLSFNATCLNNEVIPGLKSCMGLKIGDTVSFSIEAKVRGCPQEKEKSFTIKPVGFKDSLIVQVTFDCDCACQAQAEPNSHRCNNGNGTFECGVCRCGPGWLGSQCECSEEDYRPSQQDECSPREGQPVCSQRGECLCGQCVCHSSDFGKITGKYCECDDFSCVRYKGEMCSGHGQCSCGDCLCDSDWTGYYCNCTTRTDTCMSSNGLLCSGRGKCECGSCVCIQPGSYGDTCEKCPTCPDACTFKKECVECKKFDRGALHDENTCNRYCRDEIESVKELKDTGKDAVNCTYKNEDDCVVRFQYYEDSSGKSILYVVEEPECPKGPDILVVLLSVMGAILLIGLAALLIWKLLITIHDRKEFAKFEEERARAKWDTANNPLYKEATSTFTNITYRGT

With `C#CCOC(=O)N[C@@H](CNC(=O)c1ccc(OCCNC2=NCCCN2)cc1O)C(=O)O` [Example 13, (2S)-3-({2-hydroxy-4-[2-(1,4,5,6-tetrahydropyrimidin-2-ylamino)ethoxy]benzoyl}-amino)-2-{[(prop-2-ynyloxy)carbonyl]amino}propanoic acid], the IC50 was 0.183 µM.

With `O=C(N[C@@H](CNC(=O)c1ccc(OCCNC2=NCCCN2)cc1O)C(=O)O)OCc1ccccc1` [Example 14, (2S)-2-{[(benzyloxy)carbonyl]amino}-3-({2-hydroxy-4-[2-(1,4,5,6-tetrahydropyrimidin-2-ylamino)ethoxy]benzoyl}amino)propanoic acid], the IC50 stood at 0.0445 µM.

With `O=C(Nc1ccccc1)N[C@@H](CNC(=O)c1ccc(OCCNC2=NCCCN2)cc1O)C(=O)O` [Example 20, (2S)-2-[(anilinocarbonyl)amino]-3-({2-hydroxy-4-[2-(1,4,5,6-tetrahydropyrimidin-2-ylamino)ethoxy]benzoyl}amino)propanoic acid], the IC50 stood at 1.44 µM. Consider `O=C(NC1CCCCC1)N[C@@H](CNC(=O)c1ccc(OCCNC2=NCCCN2)cc1O)C(=O)O` [Example 21, (2S)-2-{[(cyclohexylamino)carbonyl]amino}-3-({2-hydroxy-4-[2-(1,4,5,6-tetrahydropyrimidin-2-ylamino)ethoxy]benzoyl}amino)propanoic acid], for which the IC50 was found to be 1.52 µM.

As to `Cc1ccc(NC(=O)N[C@@H](CNC(=O)c2ccc(OCCNC3=NCCCN3)cc2O)C(=O)O)cc1` [Example 23, (2S)-3-({2-hydroxy-4-[2-(1,4,5,6-tetrahydropyrimidin-2-ylamino)ethoxy]benzoyl}-amino)-2-[(4-toluidinocarbonyl)amino]propanoic acid], the IC50 amounted to 1.02 µM. Regarding `Cc1ccccc1NC(=O)N[C@@H](CNC(=O)c1ccc(OCCNC2=NCCCN2)cc1O)C(=O)O` [Example 24, (2S)-3-({2-hydroxy-4-[2-(1,4,5,6-tetrahydropyrimidin-2-ylamino)ethoxy]benzoyl}-amino)-2-[(2-toluidinocarbonyl)amino]propanoic acid], the IC50 was found to be 1.48 µM.

For the compound `COc1ccccc1NC(=O)N[C@@H](CNC(=O)c1ccc(OCCNC2=NCCCN2)cc1O)C(=O)O` [Example 25, (2S)-3-({2-hydroxy-4-[2-(1,4,5,6-tetrahydropyrimidin-2-ylamino)ethoxy]benzoyl}-amino)-2-{[(2-methoxyanilino)carbonyl]amino}propanoic acid], the IC50 turned out to be 0.674 µM.

Consider `O=C(Nc1ccccc1Cl)N[C@@H](CNC(=O)c1ccc(OCCNC2=NCCCN2)cc1O)C(=O)O` [Example 27, (2S)-2-{[(2-chloroanilino)carbonyl]amino}-3-({2-hydroxy-4-[2-(1,4,5,6-tetrahydropyrimidin-2-ylamino)ethoxy]benzoyl}amino)propanoic acid], for which the IC50 turned out to be 0.331 µM. Consider `O=C(Nc1ccccc1Br)N[C@@H](CNC(=O)c1ccc(OCCNC2=NCCCN2)cc1O)C(=O)O` [Example 28, (2S)-2-{[(2-bromoanilino)carbonyl]amino}-3-({2-hydroxy-4-[2-(1,4,5,6-tetrahydropyrimidin-2-ylamino)ethoxy]benzoyl}amino)propanoic acid], for which the IC50 was 0.159 µM. Take `O=C(Nc1ccccc1-c1ccccc1)N[C@@H](CNC(=O)c1ccc(OCCNC2=NCCCN2)cc1O)C(=O)O` [Example 29, (2S)-2-{[([1,1′-biphenyl]-2-ylamino)carbonyl]amino}-3-({2-hydroxy-4-[2-(1,4,5,6-tetrahydropyrimidin-2-ylamino)ethoxy]benzoyl}amino)propanoic acid]: the IC50 was found to be 0.405 µM. With `O=C(Nc1ccc(Cl)cc1)N[C@@H](CNC(=O)c1ccc(OCCNC2=NCCCN2)cc1O)C(=O)O` [Example 30, (2S)-2-{[(4-chloroanilino)carbonyl]amino}-3-({2-hydroxy-4-[2-(1,4,5,6-tetrahydropyrimidin-2-ylamino)ethoxy]benzoyl}amino)propanoic acid] the figure was 1.27 µM.

Take `O=C(Nc1cccc2ccccc12)N[C@@H](CNC(=O)c1ccc(OCCNC2=NCCCN2)cc1O)C(=O)O` [Example 31, (2S)-3-({2-hydroxy-4-[2-(1,4,5,6-tetrahydropyrimidin-2-ylamino)ethoxy]benzoyl}-amino)-2-{[(1-naphthylamino)carbonyl]amino}propanoic acid]: the IC50 is 0.261 µM.

For `CC(C)(C)COC(=O)N[C@@H](CNC(=O)c1ccc(OCCNc2ncccn2)cc1O)C(=O)O` [Example 53, (2S)-3-({2-hydroxy-4-[2-(pyrimidin-2-ylamino)ethoxy]benzoyl}-amino)-2-{[(neopentyloxy)carbonyl]amino}propanoic acid], the IC50 worked out at 34 µM. As for `O=C(N[C@@H](CNC(=O)c1ccc(OCCNc2ncccn2)cc1O)C(=O)O)Oc1ccccc1` [Example 54, (2S)-3-({2-hydroxy-4-[2-(pyrimidin-2-ylamino)ethoxy]benzoyl}amino)-2-[(phenoxycarbonyl)amino]propanoic acid], the IC50 was 34 µM. Turning to `O=C(N[C@@H](CNC(=O)c1ccc(OCCNc2ncccn2)cc1O)C(=O)O)OCc1ccccc1` [Example 55, (2S)-2-{[(benzyloxy)carbonyl]amino}-3-({2-hydroxy-4-[2-(pyrimidin-2-ylamino)ethoxy]benzoyl}amino)propanoic acid], the IC50 was determined as 101 µM.

With `CC(C)COC(=O)N[C@@H](CNC(=O)c1ccc(OCCNc2ncccn2)cc1O)C(=O)O` [Example 56, (2S)-3-({2-hydroxy-4-[2-(pyrimidin-2-ylamino)ethoxy]benzoyl}amino)-2-[(isobutoxycarbonyl)amino]propanoic acid], the IC50 is 85.8 µM. For the compound `CCCCCCCCOC(=O)N[C@@H](CNC(=O)c1ccc(OCCNc2ncccn2)cc1O)C(=O)O` [Example 58, (2S)-3-({2-hydroxy-4-[2-(pyrimidin-2-ylamino)ethoxy]benzoyl}amino)-2-{[(octyloxy)carbonyl]amino}propanoic acid], the IC50 turned out to be 100 µM. Consider `CCCCOC(=O)N[C@@H](CNC(=O)c1ccc(OCCNc2ncccn2)cc1O)C(=O)O` [Example 59, (2S)-2-[(butoxycarbonyl)amino]-3-({2-hydroxy-4-[2-(pyrimidin-2-ylamino)ethoxy]benzoyl}amino)propanoic acid], for which the IC50 was found to be 100 µM. With `CCCCCCOC(=O)N[C@@H](CNC(=O)c1ccc(OCCNc2ncccn2)cc1O)C(=O)O` [Example 62, (2S)-2-{[(hexyloxy)carbonyl]amino}-3-({2-hydroxy-4-[2-(pyrimidin-2-ylamino)-ethoxy]benzoyl}amino)propanoic acid], the IC50 was found to be 100 µM.

As for `COC(=O)N[C@@H](CNC(=O)c1ccc(OCCNc2ncccn2)cc1O)C(=O)O` [Example 65, (2S)-3-({2-hydroxy-4-[2-(pyrimidin-2-ylamino)ethoxy]benzoyl}amino)-2-[(methoxycarbonyl)amino]propanoic acid], the IC50 was determined as 100 µM. Take `CCOC(=O)N[C@@H](CNC(=O)c1ccc(OCCNc2ncccn2)cc1O)C(=O)O` [Example 66, (2S)-2-[(ethoxycarbonyl)amino]-3-({2-hydroxy-4-[2-(pyrimidin-2-ylamino)-ethoxy]benzoyl}amino)propanoic acid]: the IC50 is 100 µM.

In the case of `CCCOC(=O)N[C@@H](CNC(=O)c1ccc(OCCNc2ncccn2)cc1O)C(=O)O` [Example 67, (2S)-3-({2-hydroxy-4-[2-(pyrimidin-2-ylamino)ethoxy]benzoyl}amino)-2-[(propoxycarbonyl)amino]propanoic acid], the IC50 was found to be 100 µM. `CC(C)OC(=O)N[C@@H](CNC(=O)c1ccc(OCCNc2ncccn2)cc1O)C(=O)O` [Example 68, (2S)-3-({2-hydroxy-4-[2-(pyrimidin-2-ylamino)ethoxy]benzoyl}amino)-2-[(isopropoxycarbonyl)amino]propanoic acid]: the IC50 is 100 µM. Turning to `C=CCOC(=O)N[C@@H](CNC(=O)c1ccc(OCCNc2ncccn2)cc1O)C(=O)O` [Example 69, (2S)-2-{[(allyloxy)carbonyl]amino}-3-({2-hydroxy-4-[2-(pyrimidin-2-ylamino)ethoxy]benzoyl}amino)propanoic acid], the IC50 was found to be 100 µM. The result for `C=CCCOC(=O)N[C@@H](CNC(=O)c1ccc(OCCNc2ncccn2)cc1O)C(=O)O` [Example 70, (2S)-2-{[(but-3-enyloxy)carbonyl]amino}-3-({2-hydroxy-4-[2-(pyrimidin-2-ylamino)ethoxy]benzoyl}amino)propanoic acid] reads 100 µM; that for `O=C(Nc1ccccc1)N[C@@H](CNC(=O)c1ccc(OCCNc2ncccn2)cc1O)C(=O)O` [Example 71, (2S)-2-[(anilinocarbonyl)amino]-3-({2-hydroxy-4-[2-(pyrimidin-2-ylamino)ethoxy]-benzoyl}amino)propanoic acid], over 1 µM; that for `CC(C)(C)NC(=O)N[C@@H](CNC(=O)c1ccc(OCCNc2ncccn2)cc1O)C(=O)O` [Example 72, (2S)-2-{[(tert-butylamino)carbonyl]amino}-3-({2-hydroxy-4-[2-(pyrimidin-2-ylamino)ethoxy]benzoyl}amino)propanoic acid], over 1 µM. For `CCCCNC(=O)N[C@@H](CNC(=O)c1ccc(OCCNc2ncccn2)cc1O)C(=O)O` [Example 73, (2S)-2-{[(butylamino)carbonyl]amino}-3-({2-hydroxy-4-[2-(pyrimidin-2-ylamino)ethoxy]benzoyl}amino)propanoic acid], the IC50 is over 1 µM. `Cc1ccccc1NC(=O)N[C@@H](CNC(=O)c1ccc(OCCNc2ncccn2)cc1O)C(=O)O` [Example 78, (2S)-3-({2-hydroxy-4-[2-(pyrimidin-2-ylamino)ethoxy]benzoyl}amino)-2-[(2-toluidinocarbonyl)amino]propanoic acid]: the IC50 is over 1 µM. As to `COc1ccccc1NC(=O)N[C@@H](CNC(=O)c1ccc(OCCNc2ncccn2)cc1O)C(=O)O` [Example 79, (2S)-3-({2-hydroxy-4-[2-(pyrimidin-2-ylamino)ethoxy]benzoyl}amino)-2-{[(2-methoxyanilino)carbonyl]amino}propanoic acid], the IC50 is over 1 µM.

For the compound `O=C(Nc1ccccc1Cl)N[C@@H](CNC(=O)c1ccc(OCCNc2ncccn2)cc1O)C(=O)O` [Example 80, (2S)-2-{[(2-chloroanilino)carbonyl]amino}-3-({2-hydroxy-4-[2-(pyrimidin-2-ylamino)ethoxy]benzoyl}amino)propanoic acid], the IC50 is over 1 µM.
